Measured values reported in the supplement of paper PMC10307832.

Legend:
Assay in all cases: relative viability (nuclei count vs DMSO), 5 days (fraction); higher = more cells survive
[1] = compound: CCN1C(=O)C2=CC(=C(N=C2N(C1=O)C3CC3)N)C(=O)N + Cc1nc(Nc2ncc(C(=O)Nc3c(C)cccc3Cl)s2)cc(N2CCN(CCO)CC2)n1 [Dasatinib] (partner 0.075 µM)
Method in brief: (§1)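 Dosing by pin tool came one day after lung cancer cell lines were seeded in 1536-well plates, using either one drug or a fixed anchor-drug dose plus five library-drug doses (not always all listed) in √10 steps. After 5 days, nuclei were counted on 4× images. Relative viability is treated-well nuclei count divided by vehicle-well nuclei count, and values are medians of duplicate plates.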

[2] = compound: CCN1C(=O)C2=CC(=C(N=C2N(C1=O)C3CC3)N)C(=O)N + O=C(c1cc(Cc2n[nH]c(=O)c3ccccc23)ccc1F)N1CCN(C(=O)C2CC2)CC1 [Olaparib] (partner 8 µM)
Method in brief: as §1

[3] = compound: CCN1C(=O)C2=CC(=C(N=C2N(C1=O)C3CC3)N)C(=O)N + O=C(CCCCCCC(=O)Nc1ccccc1)NO [Vorinostat] (partner 1 µM)
Method in brief: as §1

[4] = compound: CCN1C(=O)C2=CC(=C(N=C2N(C1=O)C3CC3)N)C(=O)N + Cc1cc(Nc2cc(N3CCN(C)CC3)nc(Sc3ccc(NC(=O)C4CC4)cc3)n2)n[nH]1 [Tozasertib] (partner 0.1 µM)
Method in brief: as §1

[5] = compound: CCN1C(=O)C2=CC(=C(N=C2N(C1=O)C3CC3)N)C(=O)N + C[C@]1(O)C[C@@H](c2nc(-c3ccc4ccc(-c5ccccc5)nc4c3)c3c(N)nccn32)C1 [Linsitinib] (partner 1 µM)
Method in brief: as §1

Row | Cell Line | relative viability ([1]; first compound 0.8 µM) | relative viability ([1]; first compound 2.53 µM) | relative viability ([1]; first compound 8 µM) | relative viability ([2]; first compound 0.253 µM) | relative viability ([2]; first compound 0.8 µM) | relative viability ([2]; first compound 2.53 µM) | relative viability ([2]; first compound 8 µM) | relative viability ([3]; first compound 0.253 µM) | relative viability ([3]; first compound 0.8 µM) | relative viability ([3]; first compound 2.53 µM) | relative viability ([3]; first compound 8 µM) | relative viability ([4]; first compound 0.8 µM) | relative viability ([4]; first compound 2.53 µM) | relative viability ([4]; first compound 8 µM) | relative viability ([5]; first compound 0.253 µM) | relative viability ([5]; first compound 0.8 µM) | relative viability ([5]; first compound 2.53 µM) | relative viability ([5]; first compound 8 µM) | relative viability ([1]; first compound 0.253 µM) | relative viability ([4]; first compound 0.253 µM)
1 | HCC-366 | 0.656 | 0.518 | 0.611 | 0.351 | 0.361 | 0.361 | 0.37 | 0.363 | 0.384 | 0.297 | 0.277 | 0.0821 | 0.0697 | 0.0668 | 0.726 | 0.65 | 0.623 | 0.6 |  | 
2 | HCC-827 | 0.348 | 0.266 | 0.284 | 0.681 | 0.679 | 0.584 | 0.699 | 0.498 | 0.709 | 1 | 0.819 | 0.387 | 0.457 | 0.445 | 0.954 | 0.97 | 0.899 | 0.979 | 0.348 | 0.395
3 | HOP-62 | 0.614 | 0.695 | 0.598 | 0.349 | 0.488 | 0.41 | 0.572 | 0.622 | 0.71 | 0.58 | 0.579 | 0.353 | 0.382 | 0.371 | 0.989 | 1.09 | 0.825 | 1.05 | 0.715 | 0.367
4 | LC-2-ad | 0.526 | 0.652 | 0.698 | 0.803 | 0.892 | 0.736 | 0.772 | 0.663 | 0.754 | 0.698 | 0.721 | 0.507 | 0.484 | 0.452 | 0.811 | 0.805 | 0.782 | 0.899 | 0.537 | 0.399
5 | LCLC-97TM1 | 0.948 | 0.855 | 0.883 | 0.422 | 0.397 | 0.318 | 0.419 | 0.711 | 0.752 | 0.634 | 0.773 | 0.166 | 0.204 | 0.25 | 0.196 |  |  | 0.218 | 0.793 | 0.218
6 | LCLC-103H | 0.426 | 0.457 | 0.445 | 0.739 | 0.754 | 0.74 | 0.772 | 0.798 | 0.806 | 0.761 | 0.817 | 0.487 | 0.472 | 0.48 | 1.13 | 1.03 | 1.07 | 1.01 | 0.453 | 0.468
7 | LK-2 | 0.294 | 0.303 | 0.221 | 0.641 | 0.706 | 0.575 | 0.596 | 0.286 | 0.377 | 0.307 | 0.302 | 0.173 | 0.149 | 0.161 | 0.575 | 0.612 | 0.655 | 0.616 | 0.312 | 0.184
8 | LOU-NH91 | 0.526 | 0.54 | 0.527 | 0.913 | 0.924 | 0.92 | 0.946 | 0.863 | 0.848 | 0.948 | 0.903 | 0.649 | 0.635 | 0.683 | 1.04 | 0.951 | 0.96 | 0.879 | 0.499 | 0.603
9 | LU99A | 0.548 | 0.528 | 0.511 | 0.256 | 0.285 | 0.256 | 0.275 | 0.471 | 0.493 | 0.471 | 0.469 | 0.277 | 0.252 | 0.238 | 0.594 | 0.578 | 0.51 | 0.626 | 0.541 | 0.307
10 | LXF-289 | 0.348 | 0.28 | 0.212 | 0.957 | 1.07 | 1.01 | 1.18 | 0.798 | 0.744 | 0.825 | 0.787 | 0.26 | 0.206 | 0.201 | 0.968 | 0.96 | 0.833 | 0.958 | 0.229 | 0.127
11 | NCI-H23 | 0.746 | 0.762 | 0.656 | 0.325 | 0.292 | 0.336 | 0.332 | 0.548 | 0.715 | 0.58 | 0.635 | 0.352 | 0.352 | 0.335 | 0.602 | 0.61 | 0.56 | 0.565 | 0.786 | 0.415
12 | NCI-H322M | 0.224 | 0.256 | 0.248 | 0.855 | 0.785 | 0.753 | 0.822 | 1.04 | 0.758 | 1.04 | 0.931 | 0.475 | 0.493 | 0.511 | 0.89 | 0.9 | 0.865 | 0.914 | 0.275 | 0.526
13 | NCI-H522 | 0.858 | 0.992 | 0.753 | 0.6 | 0.678 | 0.555 | 0.65 | 0.924 | 0.81 | 0.924 | 1.01 | 0.478 | 0.496 | 0.489 |  |  |  |  | 0.761 | 0.593
14 | NCI-H1650 | 0.264 | 0.308 | 0.329 | 0.707 | 0.665 | 0.714 | 0.733 | 0.562 | 0.614 | 0.494 | 0.622 | 0.404 | 0.38 | 0.342 |  |  |  |  | 0.279 | 0.394
15 | NCI-H1703 |  |  |  | 0.702 | 0.616 | 0.384 | 0.379 |  |  |  |  |  |  |  | 0.852 | 1.12 | 0.853 | 0.6 |  | 
16 | NCI-H1792 | 0.826 | 0.879 | 0.567 | 0.44 | 0.387 | 0.292 | 0.667 |  |  |  |  |  |  |  | 0.551 | 0.624 | 0.59 | 0.559 | 0.763 | 
17 | NCI-H2170 | 0.549 | 0.596 | 0.522 | 0.573 | 0.646 | 0.565 | 0.601 | 0.881 | 0.791 | 0.869 | 0.78 | 0.788 | 0.692 | 0.632 |  |  |  |  | 0.518 | 0.752
18 | NCI-H2342 | 0.294 | 0.349 | 0.323 | 0.42 | 0.467 | 0.421 | 0.492 | 0.719 | 0.812 | 0.817 | 0.645 | 0.533 | 0.544 | 0.54 |  |  |  |  | 0.27 | 0.512
